The record followed here is patent US20080021099A1, “5-Cyano-prostacyclin derivatives as agents for the treatment of autoimmune disease” (Bayer Schering Pharma Aktiengesellschaft, priority 2006, published 2008).

This test has as its system Human monocyte derived dendritic cells. Description: LPS-stimulated monocyte-derived dendritic cell IL-12 release, ELISA. Format: cell-based. The conditions noted are these: 1 µM of PGE2, 10 ng/mL LPS, approx. 18 hr. An excerpt: Following stimulation through the toll-like receptors TLR, DCs express and release proinflammatory cytokines and chemokines and may induce activation and proliferation of naïve T cells. The binding of Nileprost to the EP receptor inhibits TLR4 ligand (LPS)-stimulated IL-12 release. Therefore, Nileprost skews the CD4 T cell differentiation to a Th-2 lineage.
IL-12 is a 75 kDa glycoprotein heterodimer (p70) composed of two genetically unrelated subunits linked by a disulfide bond. Enzyme-linked immunosorbant assays based on antibodies specific to IL-12 p70 are commercially available. Standards and samples are pipetted into the wells of a microplate. An antibody specific to human IL-12 is added to the wells. A substrate is added to the wells and color develops in proportion to the amount of IL-12 bound. The intensity of the color is measured.
Human monocyte-derived dendritic cells were isolated from human donors using a Ficoll density gradient and residual erythrocytes were removed by selective lysis. CD14 MicroBeads were used for separation of human cells based on the expression of the CD14 antigen. The dendritic cells were cultured at approximately 1.5×10^6 cells per mL in RPMI1640 with fetal bovine serum, 200 ng/mL GM-CSF (Leukine) and 10 ng/mL IL-4. The cells grew for a period of 3 days and then the media was changed. 10 ng/mL LPS was used to activate the cells. 1 μM of Nileprost and 1 µM of PGE2 were added during the LPS stimulation. Cells were incubated for approximately 18 hr at 37° C. IL-12 released during activation was measured by ELISA.

Turning to `CCCCC[C@H](O)/C=C/[C@H]1[C@H](O)CC(=O)[C@@H]1C/C=C\CCCC(=O)O` [PGE2, Prostaglandin E2, reference compound], the “Inhibition (percent) of IL-12 release” value reads like this: (Donor 1) 80%; (Donor 2) 33%; (Donor 3) 83%; (Donor 4) 72%.
